Like-named read-outs stand apart in the source and are kept apart here. One block for each molecule: values may come before it.
Key:
Experiment in all cases: biochemical
MKNK1 = MKNK1 (Homo sapiens, UniProt Q9BUB5)
CLK2 = CLK2 (Homo sapiens, UniProt P49760)
FLT4 = FLT4 (Homo sapiens, UniProt P35916)
MARK3 = MARK3 (Homo sapiens, UniProt P27448)
CAMK2A = CAMK2A (Homo sapiens, UniProt Q9UQM7)
MET = MET (Homo sapiens, UniProt P08581)
ADCK3 = ADCK3 (Homo sapiens, UniProt Q8NI60)
MAST1 = MAST1 (Homo sapiens, UniProt Q9Y2H9)
MST1 = MST1 (Homo sapiens, UniProt Q13043)
EGFR(L858R) = EGFR(L858R) (Homo sapiens, UniProt P00533, L858R)
MYLK2 = MYLK2 (Homo sapiens, UniProt Q9H1R3)
Sequence of MYLK2 (Q9H1R3 whole entry): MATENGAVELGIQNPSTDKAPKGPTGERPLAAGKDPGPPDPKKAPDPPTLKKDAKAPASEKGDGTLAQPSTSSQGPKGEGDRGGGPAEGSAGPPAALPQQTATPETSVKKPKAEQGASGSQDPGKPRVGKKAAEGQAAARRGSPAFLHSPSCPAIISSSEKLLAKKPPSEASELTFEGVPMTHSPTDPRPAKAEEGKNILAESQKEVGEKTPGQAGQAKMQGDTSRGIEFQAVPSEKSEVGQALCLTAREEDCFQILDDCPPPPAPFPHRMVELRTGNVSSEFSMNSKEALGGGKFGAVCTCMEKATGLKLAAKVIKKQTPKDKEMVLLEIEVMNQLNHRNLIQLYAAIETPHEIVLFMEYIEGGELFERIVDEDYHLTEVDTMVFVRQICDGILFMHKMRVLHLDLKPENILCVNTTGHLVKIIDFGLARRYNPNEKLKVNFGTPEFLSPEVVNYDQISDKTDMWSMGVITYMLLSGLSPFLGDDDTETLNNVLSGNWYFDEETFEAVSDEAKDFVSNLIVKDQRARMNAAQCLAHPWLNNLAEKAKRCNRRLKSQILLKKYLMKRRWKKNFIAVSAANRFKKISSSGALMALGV

CSF1R = CSF1R (Homo sapiens, UniProt P07333)
Sequence of CSF1R (P07333 whole entry): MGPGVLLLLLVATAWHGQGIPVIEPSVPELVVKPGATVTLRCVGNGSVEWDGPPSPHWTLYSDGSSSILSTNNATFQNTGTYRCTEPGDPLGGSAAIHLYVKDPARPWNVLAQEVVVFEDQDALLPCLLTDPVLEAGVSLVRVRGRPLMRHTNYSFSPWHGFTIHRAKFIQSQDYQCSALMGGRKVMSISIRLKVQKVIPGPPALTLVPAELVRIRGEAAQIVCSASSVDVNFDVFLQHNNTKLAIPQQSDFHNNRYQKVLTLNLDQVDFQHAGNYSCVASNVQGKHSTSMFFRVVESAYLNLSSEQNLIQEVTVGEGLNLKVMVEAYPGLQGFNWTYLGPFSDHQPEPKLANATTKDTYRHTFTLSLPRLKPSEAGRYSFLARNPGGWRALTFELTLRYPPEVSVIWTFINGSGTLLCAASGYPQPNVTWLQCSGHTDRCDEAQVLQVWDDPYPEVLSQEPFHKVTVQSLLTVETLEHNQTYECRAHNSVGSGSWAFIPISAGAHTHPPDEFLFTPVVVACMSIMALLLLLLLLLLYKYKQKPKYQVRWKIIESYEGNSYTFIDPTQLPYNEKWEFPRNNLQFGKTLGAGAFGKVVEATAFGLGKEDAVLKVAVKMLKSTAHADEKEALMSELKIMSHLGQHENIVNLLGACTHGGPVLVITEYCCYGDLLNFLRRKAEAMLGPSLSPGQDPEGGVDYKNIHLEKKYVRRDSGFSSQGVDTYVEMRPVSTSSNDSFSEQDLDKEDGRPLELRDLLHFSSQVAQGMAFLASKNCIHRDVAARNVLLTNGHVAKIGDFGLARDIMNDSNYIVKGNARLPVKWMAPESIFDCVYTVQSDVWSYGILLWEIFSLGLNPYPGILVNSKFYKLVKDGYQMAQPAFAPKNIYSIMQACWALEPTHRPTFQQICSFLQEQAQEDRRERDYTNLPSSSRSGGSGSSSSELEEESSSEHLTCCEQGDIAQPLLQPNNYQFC

MAP4K4 = MAP4K4 (Homo sapiens, UniProt O95819)
CDKL2 = CDKL2 (Homo sapiens, UniProt Q92772)
Sequence of CDKL2 (Q92772 whole entry): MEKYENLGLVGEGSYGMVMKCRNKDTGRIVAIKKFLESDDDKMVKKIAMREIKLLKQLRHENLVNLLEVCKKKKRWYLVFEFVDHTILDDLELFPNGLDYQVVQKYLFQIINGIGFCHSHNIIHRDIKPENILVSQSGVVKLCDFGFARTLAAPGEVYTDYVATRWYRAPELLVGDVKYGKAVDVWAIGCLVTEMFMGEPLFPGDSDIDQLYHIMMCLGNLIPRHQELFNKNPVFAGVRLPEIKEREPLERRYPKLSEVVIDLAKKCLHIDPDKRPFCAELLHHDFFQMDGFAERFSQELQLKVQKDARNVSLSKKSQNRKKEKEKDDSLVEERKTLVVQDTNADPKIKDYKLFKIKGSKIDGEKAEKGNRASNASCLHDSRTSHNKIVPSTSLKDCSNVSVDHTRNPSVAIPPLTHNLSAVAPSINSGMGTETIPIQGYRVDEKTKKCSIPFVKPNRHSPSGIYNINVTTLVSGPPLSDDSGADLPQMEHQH

MLK1 = MLK1 (Homo sapiens, UniProt P80192)
ACVR1 = ACVR1 (Homo sapiens, UniProt Q04771)
Sequence of ACVR1 (Q04771 whole entry): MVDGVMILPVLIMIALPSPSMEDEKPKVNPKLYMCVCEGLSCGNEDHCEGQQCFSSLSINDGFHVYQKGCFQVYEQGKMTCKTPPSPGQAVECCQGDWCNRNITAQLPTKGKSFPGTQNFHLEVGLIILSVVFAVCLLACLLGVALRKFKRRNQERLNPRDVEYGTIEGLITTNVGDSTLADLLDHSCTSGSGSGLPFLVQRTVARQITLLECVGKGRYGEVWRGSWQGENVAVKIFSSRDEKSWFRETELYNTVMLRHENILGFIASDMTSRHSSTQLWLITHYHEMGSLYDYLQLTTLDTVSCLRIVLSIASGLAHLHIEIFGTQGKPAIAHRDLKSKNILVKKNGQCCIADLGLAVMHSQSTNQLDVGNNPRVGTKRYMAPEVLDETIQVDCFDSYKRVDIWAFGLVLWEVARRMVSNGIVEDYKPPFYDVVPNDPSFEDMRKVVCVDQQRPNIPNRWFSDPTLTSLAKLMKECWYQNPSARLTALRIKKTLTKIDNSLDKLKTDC

MAP4K5 = MAP4K5 (Homo sapiens, UniProt Q9Y4K4)
ICK = ICK (Homo sapiens, UniProt Q9UPZ9)
DRAK1 = DRAK1 (Homo sapiens, UniProt Q9UEE5)
MST1R = MST1R (Homo sapiens, UniProt Q04912)
DAPK2 = DAPK2 (Homo sapiens, UniProt Q9UIK4)
Sequence of DAPK2 (Q9UIK4 whole entry): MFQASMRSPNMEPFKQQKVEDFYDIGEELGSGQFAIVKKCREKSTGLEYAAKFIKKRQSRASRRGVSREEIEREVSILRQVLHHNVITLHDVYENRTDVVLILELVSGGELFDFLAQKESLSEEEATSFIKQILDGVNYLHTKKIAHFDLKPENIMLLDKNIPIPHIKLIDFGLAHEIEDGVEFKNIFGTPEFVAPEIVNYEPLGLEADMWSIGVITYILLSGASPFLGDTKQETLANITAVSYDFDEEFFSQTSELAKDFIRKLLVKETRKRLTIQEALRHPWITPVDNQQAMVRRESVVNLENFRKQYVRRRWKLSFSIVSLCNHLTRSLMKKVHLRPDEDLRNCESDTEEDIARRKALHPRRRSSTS

CLK1 = CLK1 (Homo sapiens, UniProt P49759)
GAK = GAK (Homo sapiens, UniProt O14976)
MAP3K15 = MAP3K15 (Homo sapiens, UniProt Q6ZN16)
DLK = DLK (Homo sapiens, UniProt Q12852)
MAK = MAK (Homo sapiens, UniProt P20794)
GRK7 = GRK7 (Homo sapiens, UniProt Q8WTQ7)
HCK = HCK (Homo sapiens, UniProt P08631)
Sequence of HCK (P08631 whole entry): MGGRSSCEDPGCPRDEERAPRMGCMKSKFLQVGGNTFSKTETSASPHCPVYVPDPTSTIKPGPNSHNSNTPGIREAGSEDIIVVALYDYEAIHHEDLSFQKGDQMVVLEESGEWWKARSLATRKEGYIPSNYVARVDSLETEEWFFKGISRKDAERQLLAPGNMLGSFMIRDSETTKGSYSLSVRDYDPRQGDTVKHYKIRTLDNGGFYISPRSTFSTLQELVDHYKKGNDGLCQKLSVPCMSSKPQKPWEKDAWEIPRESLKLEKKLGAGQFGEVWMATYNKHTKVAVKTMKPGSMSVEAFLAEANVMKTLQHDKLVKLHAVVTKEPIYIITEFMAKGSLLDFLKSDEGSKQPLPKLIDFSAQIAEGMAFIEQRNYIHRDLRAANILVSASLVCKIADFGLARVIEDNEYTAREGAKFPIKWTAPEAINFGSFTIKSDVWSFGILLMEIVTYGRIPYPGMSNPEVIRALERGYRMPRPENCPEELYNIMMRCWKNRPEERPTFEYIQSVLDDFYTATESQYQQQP

AURKA = AURKA (Homo sapiens, UniProt O14965)
Sequence of AURKA (O14965 whole entry): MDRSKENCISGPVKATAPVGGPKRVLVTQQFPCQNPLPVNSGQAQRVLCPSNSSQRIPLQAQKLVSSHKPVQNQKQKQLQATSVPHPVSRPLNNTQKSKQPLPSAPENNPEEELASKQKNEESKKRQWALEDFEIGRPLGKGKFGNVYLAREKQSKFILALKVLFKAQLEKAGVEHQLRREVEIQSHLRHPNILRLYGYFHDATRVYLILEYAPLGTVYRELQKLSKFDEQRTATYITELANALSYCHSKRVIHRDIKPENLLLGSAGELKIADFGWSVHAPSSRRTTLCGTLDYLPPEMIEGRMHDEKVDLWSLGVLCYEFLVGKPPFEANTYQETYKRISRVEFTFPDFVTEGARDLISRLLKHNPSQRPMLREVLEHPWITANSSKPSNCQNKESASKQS

MYLK = MYLK (Homo sapiens, UniProt Q15746)
[1] = read-out: CPT-1-70-1 (1uM) % control
[2] = read-out: HYJ-2-002-1 (1uM) % control

Sequence of MARK3 (P27448 whole entry): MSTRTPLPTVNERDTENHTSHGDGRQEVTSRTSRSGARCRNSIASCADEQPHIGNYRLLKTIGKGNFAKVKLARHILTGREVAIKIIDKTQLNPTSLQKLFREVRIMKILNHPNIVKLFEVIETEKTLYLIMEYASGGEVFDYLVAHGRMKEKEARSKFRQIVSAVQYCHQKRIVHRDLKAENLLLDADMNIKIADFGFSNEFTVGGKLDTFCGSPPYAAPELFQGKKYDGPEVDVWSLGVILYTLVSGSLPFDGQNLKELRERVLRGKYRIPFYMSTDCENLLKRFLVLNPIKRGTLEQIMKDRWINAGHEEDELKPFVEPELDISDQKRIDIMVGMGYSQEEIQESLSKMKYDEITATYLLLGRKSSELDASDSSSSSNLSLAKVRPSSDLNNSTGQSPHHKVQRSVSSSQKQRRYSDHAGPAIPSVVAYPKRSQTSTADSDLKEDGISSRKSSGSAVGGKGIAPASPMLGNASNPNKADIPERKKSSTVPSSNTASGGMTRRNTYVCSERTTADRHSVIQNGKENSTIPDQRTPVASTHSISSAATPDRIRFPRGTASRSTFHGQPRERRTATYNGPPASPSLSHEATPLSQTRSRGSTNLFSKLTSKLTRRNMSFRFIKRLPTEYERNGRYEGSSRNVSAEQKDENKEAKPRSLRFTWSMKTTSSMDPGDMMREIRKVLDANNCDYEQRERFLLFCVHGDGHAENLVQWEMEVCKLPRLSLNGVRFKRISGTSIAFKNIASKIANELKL

Compound: CN1CCN(c2ccc(Nc3nc(Oc4ccc(NC(=O)CCl)cc4)c4cc[nH]c4n3)cc2)CC1 [CPT1-70-1]
remaining activity at 1 µM (MKNK1; [1]): 100%
remaining activity at 1 µM (CLK2; [1]): 22%
remaining activity at 1 µM (FLT4; [1]): 81%
remaining activity at 1 µM (MARK3; [1]): 9.2%
remaining activity at 1 µM (CAMK2A; [1]): 95%
remaining activity at 1 µM (MET; [1]): 28%
remaining activity at 1 µM (ADCK3; [1]): 100%
remaining activity at 1 µM (MAST1; [1]): 100%
remaining activity at 1 µM (MST1; [1]): 100%
remaining activity at 1 µM (EGFR(L858R); [1]): 22%
remaining activity at 1 µM (MYLK2; [1]): 86%
remaining activity at 1 µM (CSF1R; [1]): 12%
remaining activity at 1 µM (MAP4K4; [1]): 49%
remaining activity at 1 µM (CDKL2; [1]): 11%
remaining activity at 1 µM (MLK1; [1]): 9%
remaining activity at 1 µM (ACVR1; [1]): 100%
remaining activity at 1 µM (MAP4K5; [1]): 25%
remaining activity at 1 µM (ICK; [1]): 100%
remaining activity at 1 µM (DRAK1; [1]): 14%
remaining activity at 1 µM (MST1R; [1]): 100%
remaining activity at 1 µM (DAPK2; [1]): 88%
remaining activity at 1 µM (CLK1; [1]): 5.8%
remaining activity at 1 µM (GAK; [1]): 7.9%
remaining activity at 1 µM (MAP3K15; [1]): 100%
remaining activity at 1 µM (DLK; [1]): 78%
remaining activity at 1 µM (MAK; [1]): 100%
remaining activity at 1 µM (GRK7; [1]): 100%
remaining activity at 1 µM (HCK; [1]): 85%
remaining activity at 1 µM (AURKA; [1]): 37%
remaining activity at 1 µM (MYLK; [1]): 100%

remaining activity at 1 µM (MKNK1; [2]): 84%
remaining activity at 1 µM (CLK2; [2]): 85%
remaining activity at 1 µM (FLT4; [2]): 3.8%
remaining activity at 1 µM (MARK3; [2]): 100%
remaining activity at 1 µM (CAMK2A; [2]): 100%
remaining activity at 1 µM (MET; [2]): 59%
remaining activity at 1 µM (ADCK3; [2]): 100%
remaining activity at 1 µM (MAST1; [2]): 99%
remaining activity at 1 µM (MST1; [2]): 89%
remaining activity at 1 µM (EGFR(L858R); [2]): 3.2%
remaining activity at 1 µM (MYLK2; [2]): 0.85%
remaining activity at 1 µM (CSF1R; [2]): 0.45%
remaining activity at 1 µM (MAP4K4; [2]): 11%
remaining activity at 1 µM (CDKL2; [2]): 2.3%
remaining activity at 1 µM (MLK1; [2]): 100%
remaining activity at 1 µM (ACVR1; [2]): 100%
remaining activity at 1 µM (MAP4K5; [2]): 16%
remaining activity at 1 µM (ICK; [2]): 100%
remaining activity at 1 µM (DRAK1; [2]): 82%
remaining activity at 1 µM (MST1R; [2]): 100%
remaining activity at 1 µM (DAPK2; [2]): 92%
remaining activity at 1 µM (CLK1; [2]): 57%
remaining activity at 1 µM (GAK; [2]): 4.8%
remaining activity at 1 µM (MAP3K15; [2]): 100%
remaining activity at 1 µM (DLK; [2]): 86%
remaining activity at 1 µM (MAK; [2]): 100%
remaining activity at 1 µM (GRK7; [2]): 100%
remaining activity at 1 µM (HCK; [2]): 0.55%
remaining activity at 1 µM (AURKA; [2]): 100%
remaining activity at 1 µM (MYLK; [2]): 100%
Compound: CCN1CCN(Cc2ccc(NC(=O)c3ccc(C)c(CCc4cnc5[nH]ccc5c4OC)c3)cc2C(F)(F)F)CC1 [HYJ-2-002-1]

Source: doi:10.1101/2020.06.11.145995v1 (biorxiv, 2020)
